According to US20210230179A1, “THIENO[2,3-B]PYRIDINE DERIVATIVES AS EPAC INHIBITORS AND THEIR PHARMACEUTICAL USES” (INSTITUT NATIONAL DE LA SANTE ET DE LA RECHERCHE MEDICALE …, priority 2018, published 2021):
Where two headings read alike, the source gives them in different places.

Columns and labels:
[1] = tested on: neonatal rat ventricular myocytes; assay: cytotoxicity in cultured cells; assay type: cell-based; details: various types of cultured cells including neonatal rat ventricular myocytes
Text: Neonatal rat ventricular myocytes (NRVM) isolation: Neonatal rats of 1-2 days old were euthanized by decapitation. The heart was excised and the atria were removed.

[2] = tested on: mice; details: single i.v. bolus 8 mg/kg 5 min before reperfusion; 45 min occlusion, 24 h reperfusion
Procedure: Statistical significance was determined by two-way ANOVA followed by Bonferroni post-test or t-test. *p<0.01, **p<0.01, ***p<0.001, versus indicated values
Mice were anesthetized with intraperitoneal ketamine (60 mg/kg) and xylazine (6 mg/kg), intubated and ventilated mechanically. Anesthesia was maintained throughout the chirurgical procedure with 1.5% isoflurane. Body temperature was maintained at 37° C. A left thoracotomy was performed in order to enable coronary artery occlusion with a 7-0 Prolene thread placed around the left coronary artery for 45 min, followed by 24 h of reperfusion. […] Myocardial ischemia was confirmed by the presence of regional cyanosis. Reperfusion was confirmed by visualization of a hyperemic response. At this point, the chest was closed in layers. 24 h after reperfusion, mice were anesthetized again, the coronary artery was reoccluded at the previous site, and the heart was excised after Evans blue perfusion. The area at risk and the infarct area were respectively determined by Evans blue and 2,3,5-triphenyltetrazolium chloride (TTC) staining. The area at risk was identified as the non-blue region and expressed as a percentage of the left ventricle weight. The infarcted area was identified as the TTC negative zone and expressed as a percentage of area at risk.

[3] = tested on: isolated adult cardiomyocytes; assay: hypoxia-reoxygenation injury of isolated adult cardiomyocytes (LDH release); assay type: cell-based, mouse
[4] = molecular target: T1, Epac1 (Homo sapiens, UniProt O95398); assay: biochemical; details: for IC50: read-out: IC50, Epac1 GEF activity
T1 sequence (O95398 191-923 limits assumed): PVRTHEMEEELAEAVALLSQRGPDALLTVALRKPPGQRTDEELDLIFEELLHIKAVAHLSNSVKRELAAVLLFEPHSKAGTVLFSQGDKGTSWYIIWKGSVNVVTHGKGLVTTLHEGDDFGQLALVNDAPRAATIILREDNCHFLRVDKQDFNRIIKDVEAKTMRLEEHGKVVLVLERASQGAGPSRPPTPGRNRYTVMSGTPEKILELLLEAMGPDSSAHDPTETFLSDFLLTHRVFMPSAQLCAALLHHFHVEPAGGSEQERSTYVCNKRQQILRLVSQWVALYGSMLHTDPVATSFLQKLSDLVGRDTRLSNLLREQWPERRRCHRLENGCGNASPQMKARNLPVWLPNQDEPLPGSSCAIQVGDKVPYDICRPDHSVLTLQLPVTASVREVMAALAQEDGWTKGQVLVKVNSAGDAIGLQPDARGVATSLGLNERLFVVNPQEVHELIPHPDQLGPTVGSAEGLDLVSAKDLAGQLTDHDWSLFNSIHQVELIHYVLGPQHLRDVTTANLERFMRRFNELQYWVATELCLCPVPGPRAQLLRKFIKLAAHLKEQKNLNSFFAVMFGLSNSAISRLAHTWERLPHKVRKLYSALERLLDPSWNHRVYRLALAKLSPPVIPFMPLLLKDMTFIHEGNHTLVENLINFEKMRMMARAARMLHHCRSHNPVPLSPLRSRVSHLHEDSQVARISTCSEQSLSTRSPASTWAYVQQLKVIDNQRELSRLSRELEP
Text: FIGS. 4-8. […] Variations of relative fluorescence units (RFU) were studied as a function of time and fitted to single exponentials.

[5] = tested on: type I PKA holoenzyme; assay: type I PKA holoenzyme activation; assay type: biochemical; details: 30 μM, presence and absence of 10 μM cAMP
[6] = tested on: wild-type C57BL/6 mice; assay: chronic ISO infusion (chronic β-AR activation): cardiac function, remodelling, tolerability
Text: FIG. 17: AST and ALT activities in the serum of mice treated under the indicated conditions (left panel) (n=7 per group). Comparison of FS in animals between day 1 and day 14 in the presence or absence of AM-001 (right panel) (n=12 per group).
FIG. 18: LVW/TL ratios of mice after 14 days of treatment with vehicle or AM-001.
FIG. 20: Comparison of FS, LVIDs and LVIDd in ISO treated animals between day 1 and day 14 in the presence or absence of AM-001 (n=18-20 per group).
FIG. 21: Representative immunoblots of Epac1, GRK2, and GRK5. Statistical significance was determined by two-way ANOVA followed by Bonferroni post-test. * p<0.05, ** p<0.01, *** p<0.001, **** p<0.0001 vs indicated values. ns, not significant.
Osmotic mini-pumps (Alzet) were implanted subcutaneously in mice anaesthetized with isoflurane (1%). Pumps were filled with ISO or sterile saline and were set to deliver ISO at 60 mg/kg per day for 14 days to induce cardiac hypertrophy. AM-001 treatment (10 mg/kg/d diluted in 10% DMSO/20% Kolliphor/70% sterile saline) is given from the third day of ISO infusion. Mice were subsequently euthanized with barbiturate overdose (pentobarbital, 150 mg/kg, i.p.) and mini-pumps were weighed in order to verify complete diffusion.
Echocardiography was carried out on lightly anaesthetized (1% isoflurane in air) mice placed on a heating pad. The left ventricle dimensions were obtained during TimeMouvement mode acquisition from the parasternal short-axis view at the midventricular level of the papillary muscles using a Vevo2100 ivid7 echograph and a […] transducer (M550i13L, VisualsonicsGE Healthcare). Images were transferred and analysed off line with Vevolab software EchoPAC (GE Healthcare).
Determination of fibrosis Hearts were transversely sectioned at 10 μm thickness, fixed with 4% paraformaladehyde and stained with Sirius Red. Slides were scanned with NanoZoomer (Hamamatsu v1.2) and fibrosis was measured as positively stained area with Sirius Red and expressed as percent of total area, using ImageJ software (RSB).
Hearts were collected, fixed in 4% paraformaldehyde, dehydrated, and embedded in OCT tissue embedding compound (Tissue Tek, EMS). Longitudinal sections were performed at 10 μm in thickness and stained with hematoxylin and eosin for histological examination.
Aspartate aminotransferase (AST) and alanine aminotransferase (ALT) were measured in serum to determine the cytotoxicity, using specific kits purchased from ScienCell Research Laboratories following the manufacturer's instructions.
The inventors next sought to determine whether AM-001 could provide improvement in cardiac function and remodelling during chronic p-AR activation.

[7] = ISO 60 mg/kg per day 14 days, AM-001 10 mg/kg from day 3

Compound: Nc1c(C(=O)Nc2ccc(F)cc2)sc2nc(-c3cccs3)cc(-c3ccccc3)c12 [AM-001, 3-amino-N-(4-fluorophenyl)-4-phenyl-6-(thiophen-2-yl)thieno[2,3-b]pyridine-2-carboxamide]
- cytotoxicity [1]: no apparent cytotoxicity
- ratio of infarct size to area-at-risk [2]: 36±3%
- effect on 8-CPT-AM-induced cardiomyocyte death and hypertrophy ([3]; AM-001 20 μM, 8-CPT-AM 10 μM): inhibited the effect
- cardiomyocyte survival by LDH release ([3]; HX+R condition, 20 μM, 30 min pretreatment, vs control cells): significantly increased cardiomyocyte survival
- effect on Epac1 GEF (exchange) activity ([4]; 30 μM Sp-8-CPT, 20 μM inhibitor): prevented Epac1 GEF activity
- IC50 ([4]; Sp-8-CPT at its EC50 for the isoform): 47.8 ± 1.1 µM
- IC50 ([4]; saturating concentration of Sp-8-CPT): 48.5 ± 1 µM
- effect on type I PKA holoenzyme activation [5]: did not influence
- liver and renal histology (H & E staining) ([6]; 10 mg/kg i.p. day 3 to day 14): did not display any apparent histological alterations
- plasma level of alanine aminotransferase (ALT) ([6]; 10 mg/kg i.p. day 3 to day 14): equivalent in each group
- plasma level of aspartate aminotransferase (AST) ([6]; 10 mg/kg i.p. day 3 to day 14): equivalent in each group
- LVW/TL ratio under ISO [6, 7]: further decreased
- fibrosis (Sirius Red positive area, percent of total area) [6, 7]: 1.1±0.5%
- left ventricular end-diastolic internal diameter (LVIDd) ([6]; during ISO treatment): decrease
- left ventricular end-systolic internal diameter (LVIDs) ([6]; during ISO treatment): decrease
- ISO-induced upregulation of GRK5 expression ([6]; immunoblot, ISO treated animals): significantly reduced
- fractional shortening (FS) after 14 days of ISO ([6]; vs vehicle treated mice): higher FS
